US12668600B2 (Kumquat Biosciences Inc., priority 2023, dated 2026)

Tests used:
Format in all cases: biochemical
[1] = target: T1, KRAS G12D (Homo sapiens, UniProt P01116, G12D); assay: HTRF KRAS-SOS1 interaction assay, KRAS G12D; details: binned ≤2 μM / >2 μM, read-out: Inhibition of KRAS G12D (IC50)
T1 construct: made in house; host or cells: E. coli, e.g. BL21 (DE3)
How it was run: (§1)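 GST-tagged KRAS (WT or mutant) with anti-GST-Eu donor, mixed with His-hSOS1 and anti-6His-XL665 acceptor. Buffer ~5 mM HEPES pH 7.4, ~150 mM NaCl, ~1 mM DTT, 0.05% BSA, 0.0025% Igepal; incubated about 10 min or longer. HTRF 665/620 ratio, compounds in duplicate up to 10 μM, IC50 derived.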

[2] = target: T2, KRAS WT (Homo sapiens, UniProt P01116); assay: HTRF KRAS-SOS1 interaction assay, wildtype KRAS; details: binned ≤2 μM / >2 μM, read-out: Inhibition of KRAS WT (IC50)
T2 construct: made in house; host or cells: E. coli, e.g. BL21 (DE3)
T2 sequence (P01116 1-188 isoform P01116-2): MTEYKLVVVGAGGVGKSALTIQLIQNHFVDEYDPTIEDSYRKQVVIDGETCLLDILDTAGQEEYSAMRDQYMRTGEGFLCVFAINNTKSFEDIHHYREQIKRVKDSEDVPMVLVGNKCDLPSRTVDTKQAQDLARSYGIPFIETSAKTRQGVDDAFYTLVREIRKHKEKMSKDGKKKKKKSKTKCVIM
How it was run: as §1

[3] = target: T3, KRAS G12V (Homo sapiens, UniProt P01116, G12V); assay: HTRF KRAS-SOS1 interaction assay, KRAS G12V; details: binned ≤2 μM / >2 μM, read-out: Inhibition of KRAS G12V (IC50)
T3 construct: made in house; host or cells: E. coli, e.g. BL21 (DE3)
T3 sequence (P01116 1-188 isoform P01116-2 G12V): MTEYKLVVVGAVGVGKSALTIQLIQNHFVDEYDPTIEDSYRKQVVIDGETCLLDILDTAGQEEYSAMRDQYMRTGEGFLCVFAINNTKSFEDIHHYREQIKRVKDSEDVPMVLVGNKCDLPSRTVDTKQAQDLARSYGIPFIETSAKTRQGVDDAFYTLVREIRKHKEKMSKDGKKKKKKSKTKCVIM
How it was run: as §1

[4] = target: T4, KRAS G12S (Homo sapiens, UniProt P01116, G12S); assay: HTRF KRAS-SOS1 interaction assay, KRAS G12S; details: binned ≤2 μM / >2 μM, read-out: Inhibition of KRAS G12S (IC50)
T4 construct: made in house; host or cells: E. coli, e.g. BL21 (DE3)
T4 sequence (P01116 1-188 isoform P01116-2 G12S): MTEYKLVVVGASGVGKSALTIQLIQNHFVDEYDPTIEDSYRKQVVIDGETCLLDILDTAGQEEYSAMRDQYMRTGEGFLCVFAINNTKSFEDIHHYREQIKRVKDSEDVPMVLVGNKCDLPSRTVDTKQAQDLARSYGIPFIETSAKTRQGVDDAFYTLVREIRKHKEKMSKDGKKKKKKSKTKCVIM
How it was run: as §1

T1 sequence (P01116 1-188 isoform P01116-2 G12D): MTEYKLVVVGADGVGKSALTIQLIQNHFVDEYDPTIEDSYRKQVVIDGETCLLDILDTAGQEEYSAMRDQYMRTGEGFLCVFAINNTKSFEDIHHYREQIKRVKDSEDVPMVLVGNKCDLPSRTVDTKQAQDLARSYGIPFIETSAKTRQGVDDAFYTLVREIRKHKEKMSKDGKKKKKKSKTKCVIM

IC50 [1] | IC50 [2] | IC50 [3] | IC50 [4] | SMILES
≤ 2000 nM | ≤ 2000 nM | ≤ 2000 nM | ≤ 2000 nM | C[C@H](c1cccnc1N)N1CCOc2c(Cl)c(-c3ccc(F)c4sc(N)c(C#N)c34)c(F)c3nc(OCC45CCCC4CCC5)nc1c23 (single isomer, unassigned) [Compound 914]
≤ 2000 nM | ≤ 2000 nM | ≤ 2000 nM | ≤ 2000 nM | CC(=O)c1c(F)ccc2cc(O)cc(-c3nc4c5c(nc(OC[C@@H]6CCCN6C)nc5c3F)N(C(C)c3cccnc3N)CCO4)c12 (mixture of isomers) [Compound 801, 1-(8-(10-(1-(2-aminopyridin-3-yl)ethyl)-4-fluoro-2-(((S)-1-methylpyrrolidin-2-yl)methoxy)-9,10-dihydro-8H-7-oxa-1,3,6,10-tetraazacyclohepta[de]naphthalen-5-yl)-2-fluoro-6-hydroxynaphthalen-1-yl)ethan-1-one]
≤ 2000 nM | ≤ 2000 nM | ≤ 2000 nM | ≤ 2000 nM | C[C@H](c1cc(C#N)cnc1N)N1CCOc2c(Cl)c(-c3ccc(F)c4sc(N)c(C#N)c34)c(F)c3nc(OC[C@@]45CCCN4C[C@H](F)C5)nc1c23 [Compound 873, 6-amino-5-((1R)-1-(9-(2-amino-3-cyano-7-fluorobenzo[b]thiophen-4-yl)-8-chloro-10-fluoro-2-(((2R,7aS)-2-fluorotetrahydro-1H-pyrrolizin-7a(5H)-yl)methoxy)-5,6-dihydro-4H-[1,4]oxazepino[5,6,7-de]quinazolin-4-yl)ethyl)nicotinonitrile]

Continued, compound first:

SMILES | IC50 [1] | IC50 [2] | IC50 [3] | IC50 [4]
C[C@H](c1cc(Cl)cnc1N)N1CCOc2c(C(F)(F)F)c(-c3ccc(F)c4sc(N)c(C#N)c34)c(F)c3nc(OC[C@@]45CCCN4C[C@H](F)C5)nc1c23 (single isomer, unassigned) [Compound 766] | ≤ 2000 nM | ≤ 2000 nM | ≤ 2000 nM | ≤ 2000 nM
CC(=O)c1c(F)ccc2cc(O)cc(-c3nc4c5c(nc(OC[C@@]67CCCN6C[C@H](F)C7)nc5c3F)N(C(C)c3cccnc3N)CCO4)c12 (mixture of isomers) [Compound 744] | ≤ 2000 nM | ≤ 2000 nM | ≤ 2000 nM | ≤ 2000 nM
C[C@H](Oc1nc2c3c(c(Cl)c(-c4ccc(F)c5sc(N)c(C#N)c45)c(F)c3n1)OCCN2[C@H](C)c1cccnc1N)[C@@H]1CCCN1C (single isomer, unassigned) [Compound 633] | ≤ 2000 nM | ≤ 2000 nM | ≤ 2000 nM | ≤ 2000 nM
C=C1CN2CCC[C@@]2(COc2nc3c4c(c(C(F)(F)F)c(-c5ccc(F)c6sc(N)c(C#N)c56)c(F)c4n2)OCCN3[C@H](C)c2cc(Cl)cnc2N)C1 [Compound 690, 2-amino-4-(4-((R)-1-(2-amino-5-chloropyridin-3-yl)ethyl)-10-fluoro-2-(((S)-2-methylenetetrahydro-1H-pyrrolizin-7a(5H)-yl)methoxy)-8-(trifluoromethyl)-5,6-dihydro-4H-[1,4]oxazepino[5,6,7-de]quinazolin-9-yl)-7-fluorobenzo[b]thiophene-3-carbonitrile] | ≤ 2000 nM | ≤ 2000 nM | ≤ 2000 nM | ≤ 2000 nM
C=C1CN2CC(=C)CC2(COc2nc3c4c(c(C(F)(F)F)c(-c5ccc(F)c6sc(N)c(C#N)c56)c(F)c4n2)OCCN3[C@H](C)c2cccnc2N)C1 (single isomer, unassigned) [Compound 775] | ≤ 2000 nM | ≤ 2000 nM | ≤ 2000 nM | ≤ 2000 nM
C=CC(F)(F)[C@H](c1cccnc1N)N1CCOc2c(Cl)c(-c3ccc(F)c4sc(N)c(C#N)c34)c(F)c3nc(OC[C@@]45CCCN4C[C@H](F)C5)nc1c23 [Compound 639, 2-amino-4-(4-((S)-1-(2-aminopyridin-3-yl)-2,2-difluorobut-3-en-1-yl)-8-chloro-10-fluoro-2-(((2R,7aS)-2-fluorotetrahydro-1H-pyrrolizin-7a(5H)-yl)methoxy)-5,6-dihydro-4H-[1,4]oxazepino[5,6,7-de]quinazolin-9-yl)-7-fluorobenzo[b]thiophene-3-carbonitrile] | ≤ 2000 nM | ≤ 2000 nM | ≤ 2000 nM | ≤ 2000 nM
